Assay results from patent US10119168B2, “Methods for the treatment of kidney fibrosis” (priority 2014, dated 2018).

Test system: mouse kidney
Assay: RNA-seq of kidney gene expression over time in FA nephropathy progression (Table 1)
Type: in vivo
Text: Identification of Candidate Genes for Biomarkers of Kidney Fibrosis Through RNA-Seq. […] To select genes that are indicative of fibrosis candidates were considered from this later group that had robust upregulation (>5-fold with >100 read counts at peak) over time as fibrosis progresses. Another important criteria was the location of the protein product of the gene, either in extracellular matrix or transmembrane, to increase the chance of detecting it in the urine and use it as a biomarker(11).
(§1) RNA samples (n=3 mice/time point) were sequenced at the Bioplymers Facility at the Harvard Medical School. Libraries were prepared from 10 ng total RNA per sample using the IntegenX Apollo 324 system and NuGEN SPIA reagents. Libraries were multiplexed in groups of three per lane of a flowcell and 50 cycle, paired-end sequencing was performed on an Illumina HiSeq2000 instrument. Illumina sequence quality was surveyed with FastQC (available on the world wide web at bioinformatics.babraham.ac.uk/projects/fastqc/) to ensure suitability of library generation and sequencing for further analysis. Adapters and lower quality bases were trimmed with Cutadapt (available on the world wide web at code.google.com/p/cutadapt/), using a Phred quality cutoff of 20, and reassessed with FastQC. Trimmed reads were aligned to the Ensembl NCBIM37 Mus musculus genome build with TopHat2. Aligned reads were summarized at the gene level against the Illumina iGenomes (available on the world wide web at tophat.cbcb.umd.edu/igenomes.html) NCBIM37 Mus musculus gene annotations using HTSeq (available on the world wide web at huber.embl.de/users/anders/HTSeq/doc/overview.html). […] The full dataset is available in the NCBI GEO database with the accession number GSE65267. Raw data is accessible on the world wide web at ncbi.nlm.nih.gov/geo/query/acc.cgi?acc=GSE65267.
Mice were sacrificed at 1, 2, 3, 7 and 14 days following administration. […] All mice were sacrificed at 14 days.
as §1, with “The quantity and quality of mRNA” for “RNA samples (n=3 mice/time point)”, “assayed on an Agilent 2200 TapeStation instrument and by SYBR qPCR assay.” for “sequenced at the Bioplymers Facility at the Harvard Medical School.”, “(https://code.google.com/p/cutadapt/),” for “(available on the world wide web at code.google.com/p/cutadapt/),”

Nc1nc2ncc(CNc3ccc(C(=O)N[C@@H](CCC(=O)O)C(=O)O)cc3)nc2c(=O)[nH]1 [FA, folic acid]
Sycn mean fold change from normal (Day 3): 0.07 fold | Synpr mean fold change from normal (Day 3): 0.01 fold | Sytl2 mean fold change from normal (Day 3): 8.20 fold | Tagln2 mean fold change from normal (Day 3): 4.86 fold | Tbx10 mean fold change from normal (Day 3): 0.08 fold | Timd2 mean fold change from normal (Day 3): 1.47 fold | Timp1 mean fold change from normal (Day 3): 60.56 fold | Tlr2 mean fold change from normal (Day 3): 34.62 fold | Tmem25 mean fold change from normal (Day 3): 0.39 fold | Tmem26 mean fold change from normal (Day 3): 0.16 fold | Tmem207 mean fold change from normal (Day 3): 0.14 fold | Tmsb10 mean fold change from normal (Day 3): 9.84 fold | Tnc mean fold change from normal (Day 3): 9.00 fold | Tnfaip3 mean fold change from normal (Day 3): 6.38 fold | Tnfrsf23 mean fold change from normal (Day 3): 5.65 fold | Top2a mean fold change from normal (Day 3): 10.49 fold | Tpx2 mean fold change from normal (Day 3): 7.65 fold | Tril mean fold change from normal (Day 3): 0.69 fold | Tsc22d1 mean fold change from normal (Day 3): 4.34 fold | Ttc36 mean fold change from normal (Day 3): 0.34 fold | Ttr mean fold change from normal (Day 3): 0.15 fold | Tyrobp mean fold change from normal (Day 3): 4.90 fold | Ugt3a1 mean fold change from normal (Day 3): 0.17 fold | Uhrf1 mean fold change from normal (Day 3): 12.11 fold | Upp2 mean fold change from normal (Day 3): 0.21 fold | Vcam1 mean fold change from normal (Day 3): 121.91 fold | Vill mean fold change from normal (Day 3): 0.18 fold | Vmn1r18 mean fold change from normal (Day 3): 0.14 fold | Vmn1r19 mean fold change from normal (Day 3): 0.52 fold | Vmn1r20 mean fold change from normal (Day 3): 0.31 fold | Vmn1r-ps11 mean fold change from normal (Day 3): 0.73 fold | Vstm2a mean fold change from normal (Day 3): 0.04 fold | Vtcn1 mean fold change from normal (Day 3): 28.37 fold | Vwce mean fold change from normal (Day 3): 0.42 fold | Wfdc15b mean fold change from normal (Day 3): 0.06 fold | Ybx2 mean fold change from normal (Day 3): 0.18 fold | 7SK RNA mean fold change from normal (Day 7): 0.08 fold | 2310042D19Rik mean fold change from normal (Day 7): 0.46 fold | 4930533I22Rik mean fold change from normal (Day 7): 0.25 fold | 4933417A18Rik mean fold change from normal (Day 7): 0.41 fold | 8430408G22Rik mean fold change from normal (Day 7): 1.23 fold | 9030619P08Rik mean fold change from normal (Day 7): 0.03 fold | Slc2a5 mean fold change from normal (Day 7): 0.25 fold | Slc4a1 mean fold change from normal (Day 7): 0.35 fold | Slc5a4a mean fold change from normal (Day 7): 0.17 fold | Slc5a12 mean fold change from normal (Day 7): 0.35 fold | Slc6a12 mean fold change from normal (Day 7): 0.12 fold | Slc7a13 mean fold change from normal (Day 7): 0.10 fold | Slc28a1 mean fold change from normal (Day 7): 0.44 fold | Slc34a1 mean fold change from normal (Day 7): 0.30 fold | Slc34a2 mean fold change from normal (Day 7): 7.02 fold | Slc34a3 mean fold change from normal (Day 7): 0.20 fold | Slc46a3 mean fold change from normal (Day 7): 0.31 fold | Slco1a1 mean fold change from normal (Day 7): 0.12 fold | Smoc2 mean fold change from normal (Day 7): 4.22 fold | Smpdl3b mean fold change from normal (Day 7): 38.83 fold | Snx31 mean fold change from normal (Day 7): 0.07 fold | Socs1 mean fold change from normal (Day 7): 34.95 fold | Sox4 mean fold change from normal (Day 7): 11.09 fold | Sox9 mean fold change from normal (Day 7): 30.72 fold | Spaca7 mean fold change from normal (Day 7): 30.89 fold | Spink6 mean fold change from normal (Day 7): 5.47 fold | Spp1 mean fold change from normal (Day 7): 37.70 fold | Spred3 mean fold change from normal (Day 7): 3.82 fold | Spsb1 mean fold change from normal (Day 7): 8.93 fold | Spt1c3 mean fold change from normal (Day 7): 1.25 fold | St8sia2 mean fold change from normal (Day 7): 26.47 fold | Stil mean fold change from normal (Day 7): 3.57 fold | Stk32a mean fold change from normal (Day 7): 2.72 fold | Stra6 mean fold change from normal (Day 7): 22.31 fold | Susd2 mean fold change from normal (Day 7): 0.28 fold | Sycn mean fold change from normal (Day 7): 0.07 fold | Synpr mean fold change from normal (Day 7): 0.01 fold | Sytl2 mean fold change from normal (Day 7): 11.81 fold | Tagln2 mean fold change from normal (Day 7): 4.01 fold | Tbx10 mean fold change from normal (Day 7): 0.03 fold | Timd2 mean fold change from normal (Day 7): 0.68 fold | Timp1 mean fold change from normal (Day 7): 67.32 fold | Tlr2 mean fold change from normal (Day 7): 15.78 fold | Tmem25 mean fold change from normal (Day 7): 0.53 fold | Tmem26 mean fold change from normal (Day 7): 0.16 fold | Tmem207 mean fold change from normal (Day 7): 0.35 fold | Tmsb10 mean fold change from normal (Day 7): 9.28 fold | Tnc mean fold change from normal (Day 7): 16.74 fold | Tnfaip3 mean fold change from normal (Day 7): 8.79 fold | Tnfrsf23 mean fold change from normal (Day 7): 2.21 fold | Top2a mean fold change from normal (Day 7): 5.58 fold | Tpx2 mean fold change from normal (Day 7): 2.93 fold | Tril mean fold change from normal (Day 7): 2.07 fold | Tsc22d1 mean fold change from normal (Day 7): 2.18 fold | Ttc36 mean fold change from normal (Day 7): 0.34 fold | Ttr mean fold change from normal (Day 7): 0.56 fold | Tyrobp mean fold change from normal (Day 7): 16.29 fold | Ugt3a1 mean fold change from normal (Day 7): 0.22 fold | Uhrf1 mean fold change from normal (Day 7): 3.81 fold | Upp2 mean fold change from normal (Day 7): 0.69 fold | Vcam1 mean fold change from normal (Day 7): 63.51 fold | Vill mean fold change from normal (Day 7): 0.20 fold | Vmn1r18 mean fold change from normal (Day 7): 0.27 fold | Vmn1r19 mean fold change from normal (Day 7): 0.73 fold | Vmn1r20 mean fold change from normal (Day 7): 0.27 fold | Vmn1r-ps11 mean fold change from normal (Day 7): 0.11 fold | Vstm2a mean fold change from normal (Day 7): 0.20 fold | Vtcn1 mean fold change from normal (Day 7): 15.70 fold | Vwce mean fold change from normal (Day 7): 1.03 fold | Wfdc15b mean fold change from normal (Day 7): 0.27 fold | Ybx2 mean fold change from normal (Day 7): 0.72 fold | 7SK RNA mean fold change from normal (Day 14): 1.35 fold | 2310042D19Rik mean fold change from normal (Day 14): 0.95 fold | 4930533I22Rik mean fold change from normal (Day 14): 0.74 fold | 4933417A18Rik mean fold change from normal (Day 14): 0.67 fold | 8430408G22Rik mean fold change from normal (Day 14): 0.79 fold | 9030619P08Rik mean fold change from normal (Day 14): 0.25 fold | Slc2a5 mean fold change from normal (Day 14): 0.99 fold | Slc4a1 mean fold change from normal (Day 14): 0.92 fold | Slc5a4a mean fold change from normal (Day 14): 1.06 fold | Slc5a12 mean fold change from normal (Day 14): 0.58 fold | Slc6a12 mean fold change from normal (Day 14): 0.77 fold | Slc7a13 mean fold change from normal (Day 14): 0.48 fold | Slc28a1 mean fold change from normal (Day 14): 0.55 fold | Slc34a1 mean fold change from normal (Day 14): 0.58 fold | Slc34a2 mean fold change from normal (Day 14): 4.10 fold | Slc34a3 mean fold change from normal (Day 14): 0.33 fold | Slc46a3 mean fold change from normal (Day 14): 0.53 fold | Slco1a1 mean fold change from normal (Day 14): 0.36 fold | Smoc2 mean fold change from normal (Day 14): 6.08 fold | Smpdl3b mean fold change from normal (Day 14): 19.27 fold | Snx31 mean fold change from normal (Day 14): 0.27 fold | Socs1 mean fold change from normal (Day 14): 36.18 fold | Sox4 mean fold change from normal (Day 14): 7.60 fold | Sox9 mean fold change from normal (Day 14): 8.17 fold | Spaca7 mean fold change from normal (Day 14): 11.81 fold | Spink6 mean fold change from normal (Day 14): 1.77 fold | Spp1 mean fold change from normal (Day 14): 10.75 fold | Spred3 mean fold change from normal (Day 14): 5.60 fold | Spsb1 mean fold change from normal (Day 14): 4.14 fold | Spt1c3 mean fold change from normal (Day 14): 0.68 fold | St8sia2 mean fold change from normal (Day 14): 2.02 fold | Stil mean fold change from normal (Day 14): 0.95 fold | Stk32a mean fold change from normal (Day 14): 1.64 fold | Stra6 mean fold change from normal (Day 14): 14.59 fold | Susd2 mean fold change from normal (Day 14): 0.51 fold | Sycn mean fold change from normal (Day 14): 0.22 fold | Synpr mean fold change from normal (Day 14): 0.18 fold | Sytl2 mean fold change from normal (Day 14): 6.72 fold | Tagln2 mean fold change from normal (Day 14): 2.37 fold | Tbx10 mean fold change from normal (Day 14): 0.44 fold | Timd2 mean fold change from normal (Day 14): 0.67 fold | Timp1 mean fold change from normal (Day 14): 61.27 fold | Tlr2 mean fold change from normal (Day 14): 7.34 fold | Tmem25 mean fold change from normal (Day 14): 0.53 fold | Tmem26 mean fold change from normal (Day 14): 0.49 fold | Tmem207 mean fold change from normal (Day 14): 1.20 fold | Tmsb10 mean fold change from normal (Day 14): 5.31 fold | Tnc mean fold change from normal (Day 14): 18.78 fold | Tnfaip3 mean fold change from normal (Day 14): 3.95 fold | Tnfrsf23 mean fold change from normal (Day 14): 1.75 fold | Top2a mean fold change from normal (Day 14): 3.30 fold | Tpx2 mean fold change from normal (Day 14): 2.69 fold | Tril mean fold change from normal (Day 14): 0.97 fold | Tsc22d1 mean fold change from normal (Day 14): 2.00 fold | Ttc36 mean fold change from normal (Day 14): 0.67 fold | Ttr mean fold change from normal (Day 14): 0.78 fold | Tyrobp mean fold change from normal (Day 14): 10.29 fold | Ugt3a1 mean fold change from normal (Day 14): 0.46 fold | Uhrf1 mean fold change from normal (Day 14): 3.48 fold | Upp2 mean fold change from normal (Day 14): 1.34 fold | Vcam1 mean fold change from normal (Day 14): 36.46 fold | Vill mean fold change from normal (Day 14): 0.36 fold | Vmn1r18 mean fold change from normal (Day 14): 0.87 fold | Vmn1r19 mean fold change from normal (Day 14): 1.04 fold | Vmn1r20 mean fold change from normal (Day 14): 0.79 fold | Vmn1r-ps11 mean fold change from normal (Day 14): 0.51 fold | Vstm2a mean fold change from normal (Day 14): 0.60 fold | Vtcn1 mean fold change from normal (Day 14): 7.44 fold | Vwce mean fold change from normal (Day 14): 0.85 fold | Wfdc15b mean fold change from normal (Day 14): 0.90 fold | Ybx2 mean fold change from normal (Day 14): 0.44 fold
